Patent publication US20240317833A1, “NON-HLA RESTRICTED T CELL VACCINE FOR TCR GAMMA ALTERNATE READING FRAME PROTEIN (TARP) PROTEIN EXPRESSING CANCERS” (PDS BIOTECHNOLOGY CORPORATION, priority 2022, published 2024)
No end group written: not given here.

System: TARP antigen-specific T cells
Test: IFN-γ ELISPOT on splenocytes of vaccinated HLA-A2 transgenic (AAD) mice, s.c. day 0 and day 7
Assay type: in vivo, HLA-A2 expressing transgenic mice (AAD mice)
Conditions: for response when used as a stimulatory peptide for the ELISPOT: HLA-A2 transgenic mouse model; for TARP 21-40 ELISPOT responses: FIG. 8; for TARP 29-37 (9V) ELISPOT responses: encapsulated in R-DOTAP nanoparticles, stimulatory peptide TARP 29-37 (9V) in water/sucrose
[1] = FIG. 6, formulated with R-DOTAP nanoparticles, stimulatory peptide SEQ ID NO:3 (9V), antigen dose 100 micrograms
[2] = FIG. 7, formulated with R-DOTAP nanoparticles, stimulatory peptide TARP 21-40 (SEQ ID NO:6), antigen dose 100 micrograms
[3] = formulated with R-DOTAP nanoparticles, two immunizations, stimulatory peptide TARP 21-40 (17V) in water/sucrose
[4] = FIG. 5, formulated in CFA, stimulatory peptide TARP 27-35 (SEQ ID NO:2), antigen dose 100 micrograms

Row | Substance | antigen-specific ELISPOT responses [1] | antigen-specific ELISPOT responses [2] | TARP 21-40 ELISPOT responses [3] | TARP 29-37 (9V) ELISPOT responses (FIG. 9, two immunizations) | antigen-specific ELISPOT responses [4] | further results
1 | FLRNFSLMV (not fully specified) [SEQ ID NO:3] | no antigen-specific ELISPOT responses | no or very weak antigen-specific ELISPOT responses | no or very weak TARP 21-40 ELISPOT responses | did not appear to elicit any TARP 29-37 (9V) ELISPOT responses | – | response when used as a stimulatory peptide for the ELISPOT (FIG. 6): apparently inactive; ELISPOT responses to TARP 29-37 (9V) (FIG. 9, Complete Freund's Adjuvant (CFA), stimulatory peptide TARP 29-37 (9V)): Very weak or no ELISPOT responses
2 | FVFLRNFSL (not fully specified) [SEQ ID NO:2] | – | – | – | – | – | response when used as a stimulatory peptide for the ELISPOT (FIG. 5): apparently inactive
3 | KSS-FLRNFSLMV (not fully specified; palmitoylated; SITE 1 Palmitoyl modified residue) [SEQ ID NO:10, palmitoylated TARP 2 (29-37)] | – | – | – | – | no antigen-specific ELISPOT responses | –
4 | KSS-RRLEHTFVFLRNFSLMLLRG (not fully specified; palmitoylated; SITE 1 Palmitoyl modified residue) [SEQ ID NO:13, palmitoylated TARP 6 (21-40)] | no antigen-specific ELISPOT responses | no or very weak antigen-specific ELISPOT responses | no or very weak TARP 21-40 ELISPOT responses | – | no antigen-specific ELISPOT responses | antigen-specific ELISPOT responses (FIG. 6, formulated in CFA, stimulatory peptide SEQ ID NO:3 (9V), antigen dose 100 micrograms): no antigen-specific ELISPOT responses; antigen-specific ELISPOT responses (FIG. 7, formulated in CFA, stimulatory peptide TARP 21-40 (SEQ ID NO:6), antigen dose 100 micrograms): no or very weak antigen-specific ELISPOT responses
5 | RRLEHTFVFLRNFSLMLLRG (not fully specified) [SEQ ID NO:6] | no antigen-specific ELISPOT responses | no or very weak antigen-specific ELISPOT responses | no or very weak TARP 21-40 ELISPOT responses | did not appear to elicit any TARP 29-37 (9V) ELISPOT responses | no antigen-specific ELISPOT responses | response when used as a stimulatory peptide for the ELISPOT (FIG. 7): inactive or very weakly active; TARP 21-40 ELISPOT responses (Complete Freunds Adjuvant (CFA), stimulated with TARP 21-40 (SEQ ID NO:6)): very weakly active
6 | SSEEEDE-RRLEHTFVFLRNFSLMLLRG (SSEEEDERRLEHTFVFLRNFSLMLLRG; Anionic amino acids) [SEQ ID NO:21] | no antigen-specific ELISPOT responses | no or very weak antigen-specific ELISPOT responses | no or very weak TARP 21-40 ELISPOT responses | – | no antigen-specific ELISPOT responses | mice responding to vaccination (FIG. 7, R-DOTAP nanoparticles, antigen dose 100 micrograms): two of six
